Source: PubChem BioAssay (NCI)
“And” between values parts separate entries of the source, which are not always exact repeats. Equal values may be shown once.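 All cell lines were grown in 96-well plates and treated with compound for 48 hours. GI50 = concentration required for 50% inhibition of growth. TGI is the concentration that stops growth completely.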

Experiments:
Test in all cases: NCI tumour cell line growth inhibition, 48 h
CAKI-1 renal = system: CAKI-1 renal
HCT-116 colon = system: HCT-116 colon
HOP-92 NSCLC = system: HOP-92 NSCLC
MDA-MB-231 breast = system: MDA-MB-231 breast
MDA-MB-435 = system: MDA-MB-435
NCI-H226 lung = system: NCI-H226 lung
OVCAR-4 ovarian = system: OVCAR-4 ovarian
PC-3 prostate = system: PC-3 prostate
SK-MEL-28 melanoma = system: SK-MEL-28 melanoma
SW-620 colon = system: SW-620 colon

Cc1cc(C(C#N)c2ccc(Cl)cc2)c(Cl)cc1NC(=O)c1cc(I)cc(I)c1O (configuration not stated)
GI50 (CAKI-1 renal): 10.2 µM and 14.3 µM
TGI (CAKI-1 renal): 35.1 µM and 40.9 µM
GI50 (HCT-116 colon): 17.7 µM and 14.5 µM
TGI (HCT-116 colon): 31.5 µM and 27.6 µM
GI50 (HOP-92 NSCLC): 1.47 µM
TGI (HOP-92 NSCLC): 4.65 µM
GI50 (MDA-MB-231 breast): 5.48 µM and 14.2 µM
TGI (MDA-MB-231 breast): 23.9 µM and 37.9 µM
GI50 (MDA-MB-435): 12 µM and 18.8 µM
TGI (MDA-MB-435): 31.6 µM and 42 µM
GI50 (NCI-H226 lung): 11.9 µM
TGI (NCI-H226 lung): 43.4 µM
GI50 (OVCAR-4 ovarian): 16.4 µM and 17.5 µM
TGI (OVCAR-4 ovarian): 51.4 µM and 47.9 µM
GI50 (PC-3 prostate): 3.18 µM and 11.7 µM
TGI (PC-3 prostate): 23 µM and 32.5 µM
GI50 (SK-MEL-28 melanoma): 5.42 µM and 14.8 µM
TGI (SK-MEL-28 melanoma): 19.7 µM and 30.3 µM
GI50 (SW-620 colon): 6.91 µM and 16.7 µM
TGI (SW-620 colon): 22.6 µM and 34.6 µM

CCOc1ccc(NCc2cc(OC)c(OC)c(OC)c2)cc1
GI50 (CAKI-1 renal): 2.01 µM and 7.61 µM
TGI (CAKI-1 renal): > 100 µM
TGI (HCT-116 colon): 48.2 µM and 46 µM
TGI (HOP-92 NSCLC): > 91.6 µM
TGI (MDA-MB-231 breast): > 100 µM
GI50 (MDA-MB-435): 0.0789 µM and 0.0919 µM
TGI (MDA-MB-435): > 100 µM
TGI (NCI-H226 lung): > 100 µM
TGI (OVCAR-4 ovarian): > 100 µM
TGI (PC-3 prostate): > 100 µM
TGI (SK-MEL-28 melanoma): > 100 µM
TGI (SW-620 colon): > 100 µM

CN(C)C(=S)N=Nc1c(O)[nH]c2ccccc12
GI50 (CAKI-1 renal): 0.257 µM
TGI (CAKI-1 renal): 1.26 µM
GI50 (HCT-116 colon): 0.303 µM
TGI (HCT-116 colon): 3 µM
GI50 (HOP-92 NSCLC): 0.761 µM
TGI (HOP-92 NSCLC): 15.9 µM
GI50 (MDA-MB-231 breast): 1.11 µM
TGI (MDA-MB-231 breast): 17.6 µM
GI50 (MDA-MB-435): 0.757 µM
TGI (MDA-MB-435): 17.3 µM
GI50 (NCI-H226 lung): 0.642 µM
TGI (NCI-H226 lung): 6.43 µM
GI50 (OVCAR-4 ovarian): 0.394 µM
TGI (OVCAR-4 ovarian): 5.59 µM
GI50 (PC-3 prostate): 0.566 µM
TGI (PC-3 prostate): 29.7 µM
GI50 (SK-MEL-28 melanoma): 2.57 µM
TGI (SK-MEL-28 melanoma): 22.7 µM
GI50 (SW-620 colon): 0.576 µM
TGI (SW-620 colon): 21.6 µM

CC(=O)Nc1ccc2c(c1)oc(=O)c1cc(NC(C)=O)ccc12
GI50 (CAKI-1 renal): > 100 µM
TGI (CAKI-1 renal): > 100 µM
GI50 (HCT-116 colon): 80.8 µM
TGI (HCT-116 colon): > 100 µM
GI50 (HOP-92 NSCLC): 29.6 µM
TGI (HOP-92 NSCLC): > 100 µM
GI50 (MDA-MB-231 breast): 48.5 µM
TGI (MDA-MB-231 breast): > 100 µM
GI50 (MDA-MB-435): > 100 µM
TGI (MDA-MB-435): > 100 µM
GI50 (NCI-H226 lung): > 100 µM
TGI (NCI-H226 lung): > 100 µM
GI50 (OVCAR-4 ovarian): > 100 µM
TGI (OVCAR-4 ovarian): > 100 µM
GI50 (PC-3 prostate): 92.4 µM
TGI (PC-3 prostate): > 100 µM
GI50 (SK-MEL-28 melanoma): > 100 µM
TGI (SK-MEL-28 melanoma): > 100 µM
GI50 (SW-620 colon): > 100 µM
TGI (SW-620 colon): > 100 µM

Cc1cc2c3ccccc3n(C)c2c2c1C(=O)C=CC2=O
TGI (CAKI-1 renal): 28.9 µM
TGI (HCT-116 colon): 39.2 µM
TGI (HOP-92 NSCLC): 25 µM
TGI (MDA-MB-231 breast): 32.7 µM
TGI (MDA-MB-435): 45.2 µM
TGI (NCI-H226 lung): 42.5 µM
TGI (OVCAR-4 ovarian): 18.7 µM
TGI (PC-3 prostate): 21.5 µM
TGI (SK-MEL-28 melanoma): 42.7 µM
TGI (SW-620 colon): 32.8 µM

O=C1/C(=C/c2ccc(O)cc2)COc2ccc(-c3ccccc3)cc21
GI50 (CAKI-1 renal): 6.9 µM
TGI (CAKI-1 renal): 20.2 µM
GI50 (HCT-116 colon): 3.38 µM
TGI (HCT-116 colon): 14.4 µM
GI50 (HOP-92 NSCLC): 7.63 µM
TGI (HOP-92 NSCLC): 31 µM
GI50 (MDA-MB-231 breast): 8.25 µM
TGI (MDA-MB-231 breast): 27.3 µM
GI50 (MDA-MB-435): 4.23 µM
TGI (MDA-MB-435): 35.8 µM
GI50 (NCI-H226 lung): 16.1 µM
TGI (NCI-H226 lung): 39.2 µM
GI50 (OVCAR-4 ovarian): 14.1 µM
TGI (OVCAR-4 ovarian): 31 µM
GI50 (PC-3 prostate): 5.09 µM
TGI (PC-3 prostate): > 63.9 µM
GI50 (SK-MEL-28 melanoma): 10.1 µM
TGI (SK-MEL-28 melanoma): 24.5 µM
GI50 (SW-620 colon): 2.8 µM
TGI (SW-620 colon): 8.06 µM

c1cnc2[nH]cc(-c3csc(-c4cn(CCCCN5CCOCC5)c5ccccc45)n3)c2c1
GI50 (CAKI-1 renal): 1.74 µM
TGI (CAKI-1 renal): 3.52 µM
GI50 (HCT-116 colon): 1.65 µM
TGI (HCT-116 colon): 3.05 µM
GI50 (HOP-92 NSCLC): 1.43 µM
TGI (HOP-92 NSCLC): 3.13 µM
GI50 (MDA-MB-231 breast): 1.58 µM
TGI (MDA-MB-231 breast): 3.27 µM
GI50 (MDA-MB-435): 1.72 µM
TGI (MDA-MB-435): 3.2 µM
GI50 (NCI-H226 lung): 2.29 µM
TGI (NCI-H226 lung): 8.23 µM
GI50 (OVCAR-4 ovarian): 2.06 µM
TGI (OVCAR-4 ovarian): 5.69 µM
GI50 (PC-3 prostate): 1.59 µM
TGI (PC-3 prostate): 4.01 µM
GI50 (SK-MEL-28 melanoma): 1.81 µM
TGI (SK-MEL-28 melanoma): 3.3 µM
GI50 (SW-620 colon): 1.77 µM
TGI (SW-620 colon): 3.54 µM

CC(=O)[O-].CC(=O)[O-].[NH2-].[Pt+2].c1ccc2cnccc2c1
GI50 (CAKI-1 renal): 55.1 µM
TGI (CAKI-1 renal): > 100 µM
GI50 (HCT-116 colon): 15.1 µM
TGI (HCT-116 colon): 33.7 µM
GI50 (HOP-92 NSCLC): 16.2 µM
TGI (HOP-92 NSCLC): 90.6 µM
GI50 (MDA-MB-231 breast): 27.3 µM
TGI (MDA-MB-231 breast): > 100 µM
GI50 (MDA-MB-435): > 100 µM
TGI (MDA-MB-435): > 100 µM
GI50 (NCI-H226 lung): 47.4 µM
TGI (NCI-H226 lung): > 100 µM
GI50 (OVCAR-4 ovarian): 22.3 µM
TGI (OVCAR-4 ovarian): > 100 µM
GI50 (PC-3 prostate): > 100 µM
TGI (PC-3 prostate): > 100 µM
GI50 (SK-MEL-28 melanoma): 52.6 µM
TGI (SK-MEL-28 melanoma): > 100 µM
GI50 (SW-620 colon): 16.2 µM
TGI (SW-620 colon): 38.3 µM
